# Measurements from PubChem BioAssay AID1963834 (Molecular Pharmacology Branch, DTP, NCI, 2024).
# pIC50: −log10 of the molar value.
# Test system: 873145-292-R-J1-PDC complex spheroid viability
# Assay: Anticancer human tumor 873145-292-R-J1-PDC patient-derived renal clear cell carcinoma cell line growth inhibition [POLQ]
# Details: for pIC50: curve of first compound; for viability, T/C: stronger effect = lower value
# Summary of the method: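 Patient-derived tumour cells were co-cultured with HUVEC and mesenchymal stem cells as multicellular spheroids at 37 °C. They were treated with POLQ inhibitors (novobiocin, ART-558, RP6685) alone or combined with other agents. Top concentrations were at or near clinical Cmax (otherwise 10 microM; SN-38 at 1 microM), decreasing in half-log steps.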
# [1] = second compound 0.0316 µM, first compound 0.0316 µM
# [2] = second compound 0.0316 µM, first compound 0.1 µM
# [3] = second compound 0.0316 µM, first compound 0.316 µM
# [4] = second compound 0.0316 µM, first compound 1 µM
# [5] = second compound 0.0316 µM, first compound 3.16 µM
# [6] = second compound 0.0316 µM, first compound 10 µM
# [7] = second compound 0.1 µM, first compound 0.0316 µM
# [8] = second compound 0.1 µM, first compound 0.1 µM
# [9] = second compound 0.1 µM, first compound 0.316 µM
# [10] = second compound 0.1 µM, first compound 1 µM
# [11] = second compound 0.1 µM, first compound 3.16 µM
# [12] = second compound 0.1 µM, first compound 10 µM
# [13] = second compound 0.316 µM, first compound 0.0316 µM
# [14] = second compound 0.316 µM, first compound 0.1 µM
# [15] = second compound 0.316 µM, first compound 0.316 µM
# [16] = second compound 0.316 µM, first compound 1 µM
# [17] = second compound 0.316 µM, first compound 3.16 µM
# [18] = second compound 0.316 µM, first compound 10 µM
# [19] = second compound 1 µM, first compound 0.0316 µM
# [20] = second compound 1 µM, first compound 0.1 µM
# [21] = second compound 1 µM, first compound 0.316 µM
# [22] = second compound 1 µM, first compound 1 µM
# [23] = second compound 1 µM, first compound 3.16 µM
# [24] = second compound 1 µM, first compound 10 µM
# [25] = second compound 3.16 µM, first compound 0.0316 µM
# [26] = second compound 3.16 µM, first compound 0.1 µM
# [27] = second compound 3.16 µM, first compound 0.316 µM
# [28] = second compound 3.16 µM, first compound 1 µM
# [29] = second compound 3.16 µM, first compound 3.16 µM
# [30] = second compound 3.16 µM, first compound 10 µM
# [31] = second compound 10 µM, first compound 0.0316 µM
# [32] = second compound 10 µM, first compound 0.1 µM
# [33] = second compound 10 µM, first compound 0.316 µM
# [34] = second compound 10 µM, first compound 1 µM
# [35] = second compound 10 µM, first compound 3.16 µM
# [36] = second compound 10 µM, first compound 10 µM
# 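Note: spheroids exposed to compounds for 7 days before viability readout.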
# 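Throughout, for viability, T/C: luminescence signal used as surrogate for viable cell content; 100% = DMSO vehicle control viability.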
compound,measurement,setting,value
O=c1[nH]cc(F)c(=O)[nH]1 + Nc1ccc(C#CCN(C(=O)Cc2ncc(C(F)(F)F)cc2C(F)(F)F)c2ccc(F)cc2)nn1,pIC50,second compound 0.0316 µM,< 5.00
same,pIC50,second compound 0.1 µM,< 5.00
same,pIC50,second compound 0.316 µM,< 5.00
same,pIC50,second compound 1 µM,< 5.00
same,pIC50,second compound 3.16 µM,< 5.00
same,pIC50,second compound 10 µM,< 5.00
same,"viability, T/C",[1],109%
same,"viability, T/C",[2],103%
same,"viability, T/C",[3],101%
same,"viability, T/C",[4],91.1%
same,"viability, T/C",[5],98.5%
same,"viability, T/C",[6],103%
same,"viability, T/C",[7],104%
same,"viability, T/C",[8],117%
same,"viability, T/C",[9],101%
same,"viability, T/C",[10],105%
same,"viability, T/C",[11],98.3%
same,"viability, T/C",[12],93.7%
same,"viability, T/C",[13],105%
same,"viability, T/C",[14],105%
same,"viability, T/C",[15],87.6%
same,"viability, T/C",[16],98%
same,"viability, T/C",[17],103%
same,"viability, T/C",[18],97.7%
same,"viability, T/C",[19],113%
same,"viability, T/C",[20],107%
same,"viability, T/C",[21],102%
same,"viability, T/C",[22],90.1%
same,"viability, T/C",[23],114%
same,"viability, T/C",[24],95.2%
same,"viability, T/C",[25],118%
same,"viability, T/C",[26],101%
same,"viability, T/C",[27],112%
same,"viability, T/C",[28],105%
same,"viability, T/C",[29],105%
same,"viability, T/C",[30],105%
same,"viability, T/C",[31],107%
same,"viability, T/C",[32],125%
same,"viability, T/C",[33],132%
same,"viability, T/C",[34],116%
same,"viability, T/C",[35],105%
same,"viability, T/C",[36],112%
CCCS(=O)(=O)Nc1ccc(F)c(C(=O)c2c[nH]c3ncc(-c4ccc(Cl)cc4)cc23)c1F + Nc1ccc(C#CCN(C(=O)Cc2ncc(C(F)(F)F)cc2C(F)(F)F)c2ccc(F)cc2)nn1,pIC50,second compound 0.0316 µM,< 5.00
same,pIC50,second compound 0.1 µM,< 5.00
same,pIC50,second compound 0.316 µM,< 5.00
same,pIC50,second compound 1 µM,< 5.00
same,pIC50,second compound 3.16 µM,< 5.00
same,pIC50,second compound 10 µM,< 5.00
same,"viability, T/C",[1],106%
same,"viability, T/C",[2],106%
same,"viability, T/C",[3],115%
same,"viability, T/C",[4],97%
same,"viability, T/C",[5],103%
same,"viability, T/C",[6],71.2%
same,"viability, T/C",[7],103%
same,"viability, T/C",[8],110%
same,"viability, T/C",[9],91.9%
same,"viability, T/C",[10],98%
same,"viability, T/C",[11],105%
same,"viability, T/C",[12],63.3%
same,"viability, T/C",[13],109%
same,"viability, T/C",[14],107%
same,"viability, T/C",[15],93.3%
same,"viability, T/C",[16],112%
same,"viability, T/C",[17],99.2%
same,"viability, T/C",[18],75.6%
same,"viability, T/C",[19],98.7%
same,"viability, T/C",[20],98.9%
same,"viability, T/C",[21],102%
same,"viability, T/C",[22],102%
same,"viability, T/C",[23],91.1%
same,"viability, T/C",[24],63%
same,"viability, T/C",[25],106%
same,"viability, T/C",[26],113%
same,"viability, T/C",[27],108%
same,"viability, T/C",[28],108%
same,"viability, T/C",[29],101%
same,"viability, T/C",[30],75.4%
same,"viability, T/C",[31],121%
same,"viability, T/C",[32],121%
same,"viability, T/C",[33],111%
same,"viability, T/C",[34],107%
same,"viability, T/C",[35],110%
same,"viability, T/C",[36],78.5%
